From US20230339981A1, “KRAS G12D MODULATING COMPOUNDS” (priority 2022, published 2023)

Assays:
GP2D (KRAS G12D) cells = test: 2D cell viability assay (CellTiter-Glo); type: cell-based; conditions: 4 days
In short: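 GP2D (KRAS G12D) cells, 1000/well in RPMI + 10% FBS, were plated onto compound (1:3 DMSO series) and grown 4 days at 37 °C, 5% CO2 in 2D. CellTiter-Glo luminescence was read; EC50 is the concentration giving 50% signal decrease, from sigmoidal fit.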

AsPC-1 (KRAS G12D) cells = test: 3D cell viability assay (spheroids, CellTiter-Glo 3D); type: cell-based; conditions: AsPC-1 cells, 3D spheroids, 4 days
In short: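 AsPC-1 cells (1000/well) in DMEM with 10% FBS formed spheroids over 3 days at 37 °C in ultra-low attachment plates, then were treated with 1:3 serial dilutions for 4 days. Viability read by CellTiter-Glo 3D luminescence; EC50 as concentration giving 50% signal decrease, sigmoidal fit.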

GDP-loaded KRAS G12D = GDP-loaded KRAS G12D (Homo sapiens (Human), UniProt P01116, G12D); test: KRAS G12D (GDP) biochemical assay (TR-FRET probe displacement); type: binding; conditions: 2 hours
In short: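 Compound pre-incubated 30 min with GDP-loaded KRAS G12D in 50 mM Hepes pH 7.4, 150 mM NaCl, 5 mM MgCl2, 0.005% Tween-20, then Eu-streptavidin and TR-FRET probe added. After 2 h at room temperature, TR-FRET ratio read; IC50 is 50% ratio decrease, sigmoidal fit.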

| Molecule | EC50 (GP2D (KRAS G12D) cells; GP2d, 96 h) | EC50 (AsPC-1 (KRAS G12D) cells; Homo sapiens, ASPC1, 96 h) | IC50 (GDP-loaded KRAS G12D) | EC50 (GP2D (KRAS G12D) cells) | EC50 (AsPC-1 (KRAS G12D) cells) |
| --- | --- | --- | --- | --- | --- |
| C#Cc1c(F)ccc2cc(O)cc(-c3nc4c5c(nc(OCC6(CN7CC8CC8C7)CC6)nc5c3F)N3C[C@H]5CC[C@H](N5)[C@H]3CC4)c12 (stereo partly drawn) [Example 176, 4-((5aR,6S,9R)-12-((1-((3-azabicyclo[3.1.0]hexan-3-yl)methyl)cyclopropyl)methoxy)-1-fluoro-4,5,5a,6,7,8,9,10-octahydro-3,10a,11,13,14-pentaaza-6,9-methanonaphtho[1,8-ab]heptalen-2-yl)-5-ethynyl-6-fluoronaphthalen-2-ol] | 0.4 nM | 9.8 nM | 0.1 nM | – | – |
| C#Cc1c(F)ccc2cccc(-c3nc4c5c(nc(OC[C@@]67CCCN6C[C@H](F)C7)nc5c3F)N3C[C@H]5CC[C@H](N5)[C@H]3CCC4)c12 [Example 76, (6aR,7S,10R)-2-(8-ethynyl-7-fluoronaphthalen-1-yl)-1-fluoro-13-(((2R,7aS)-2-fluorotetrahydro-1H-pyrrolizin-7a(5H)-yl)methoxy)-5,6,6a,7,8,9,10,11-octahydro-4H-3,11a,12,14,15-pentaaza-7,10-methanocyclohepta[4,5]cycloocta[1,2,3-de]naphthalene] | 4 nM | 27 nM | 0.1 nM | – | – |
| C#Cc1c(F)ccc2cccc(-c3nc4c5c(nc(OC[C@@]67CCCN6C[C@H](F)C7)nc5c3F)N3C[C@H]5CC[C@H](N5)[C@@H]3[C@@H](C)[C@H]4C)c12 [Example 86, (4R,5S,5aS,6S,9R)-2-(8-ethynyl-7-fluoronaphthalen-1-yl)-1-fluoro-12-(((2R,7aS)-2-fluorotetrahydro-1H-pyrrolizin-7a(5H)-yl)methoxy)-4,5-dimethyl-4,5,5a,6,7,8,9,10-octahydro-3,10a,11,13,14-pentaaza-6,9-methanonaphtho[1,8-ab]heptalene] | 14.4 nM | 64 nM | 0.5 nM | – | – |
| C#Cc1c(F)ccc2cc(O)cc(-c3nc4c5c(nc(OC[C@@]67CCCN6[C@H](COc6ncccc6OC(F)(F)F)CC7)nc5c3F)N3C[C@H]5CC[C@H](N5)[C@H]3CC4)c12 [Example 160, 5-ethynyl-6-fluoro-4-((5aR,6S,9R)-1-fluoro-12-(((3S,7aS)-3-(((3-(trifluoromethoxy)pyridin-2-yl)oxy)methyl)tetrahydro-1H-pyrrolizin-7a(5H)-yl)methoxy)-4,5,5a,6,7,8,9,10-octahydro-3,10a,11,13,14-pentaaza-6,9-methanonaphtho[1,8-ab]heptalen-2-yl)naphthalen-2-ol] | 1.4 nM | 16 nM | 0.2 nM | – | – |
| C#Cc1c(F)ccc2cccc(-c3nc4c5c(nc(OC[C@@]67CCCN6C[C@H](F)C7)nc5c3F)N3C[C@H]5CC[C@H](N5)[C@H]3CC4)c12 [Example 23, (5aR,6S,9R)-2-(8-ethynyl-7-fluoronaphthalen-1-yl)-1-fluoro-12-(((2R,7aS)-2-fluorotetrahydro-1H-pyrrolizin-7a(5H)-yl)methoxy)-4,5,5a,6,7,8,9,10-octahydro-3,10a,11,13,14-pentaaza-6,9-methanonaphtho[1,8-ab]heptalene] | 9 nM | 31 nM | 1 nM | – | – |
| C#Cc1c(F)ccc2cccc(-c3nc4c5c(nc(OC[C@@]67CCCN6C[C@H](F)C7)nc5c3F)N3C[C@H]5CC[C@H](N5)[C@H]3C[C@H]4C)c12 [Example 95, (4R,5aS,6S,9R)-2-(8-ethynyl-7-fluoronaphthalen-1-yl)-1-fluoro-12-(((2R,7aS)-2-fluorotetrahydro-11H-pyrrolizin-7a(5H)-yl)methoxy)-4-methyl-4,5,5a,6,7,8,9,10-octahydro-3,10a,11,13,14-pentaaza-6,9-methanonaphtho[1,8-ab]heptalene] | 31.9 nM | 200 nM | 0.6 nM | – | – |
| 4-((5S,5aS,6S,9R)-5-ethyl-1-fluoro-12-(((2R,7aS)-2-fluorotetrahydro-1H-pyrrolizin-7a(5H)-yl)methoxy)-5a,6,7,8,9,10-hexahydro-5H-4-oxa-3,10a,11,13,14-pentaaza-6,9-methanonaphtho[1,8-ab]heptalen-2-yl)-5-ethynyl-6-fluoronaphthalen-2-ol [Example 80] | – | – | 0.1 nM | 2.2 nM | 2 nM |
| Oc1cc(-c2nc3c4c(nc(OC[C@@]56CCCN5C[C@@]5(CC5(F)F)C6)nc4c2F)N2C[C@H]4CC[C@H](N4)[C@H]2CC3)c2c(OC(F)(F)F)c(F)ccc2c1 [Example 99, 4-((5aR,6S,9R)-12-(((1S,7a'S)-2,2-difluorodihydro-1′H,3′H-spiro[cyclopropane-1,2′-pyrrolizin]-7a′(5′H)-yl)methoxy)-1-fluoro-4,5,5a,6,7,8,9,10-octahydro-3,10a,11,13,14-pentaaza[6,9]methanonaphtho[1,8-ab]heptalen-2-yl)-6-fluoro-5-(trifluoromethoxy)naphthalen-2-ol] | 7.4 nM | 110 nM | 0.6 nM | – | – |
| C#Cc1c(F)ccc2cc(O)cc(-c3nc4c5c(nc(OC[C@@]67CCCN6C[C@H](F)C7)nc5c3F)N3C[C@H]5CC[C@H](N5)[C@@H]3[C@@H](CC)C4)c12 [Example 92, 4-((5S,5aS,6S,9R)-5-ethyl-1-fluoro-12-(((2R,7aS)-2-fluorotetrahydro-1H-pyrrolizin-7a(5H)-yl)methoxy)-4,5,5a,6,7,8,9,10-octahydro-3,10a,11,13,14-pentaaza-6,9-methanonaphtho[1,8-ab]heptalen-2-yl)-5-ethynyl-6-fluoronaphthalen-2-ol] | 17.3 nM | 52 nM | 1.9 nM | – | – |
| Oc1cc(-c2nc3c4c(nc(OC[C@@]56CCCN5C[C@H](F)C6)nc4c2F)N2C[C@H]4CC[C@H](N4)[C@H]2CC3)c2c(F)c(F)ccc2c1 [Example 27, 5,6-difluoro-4-((5aR,6S,9R)-1-fluoro-12-(((2R,7aS)-2-fluorotetrahydro-1H-pyrrolizin-7a(5H)-yl)methoxy)-4,5,5a,6,7,8,9,10-octahydro-3,10a,11,13,14-pentaaza-6,9-methanonaphtho[1,8-ab]heptalen-2-yl)naphthalen-2-ol] | 4 nM | 29 nM | 0.7 nM | – | – |
| C#Cc1c(F)ccc2cc(O)cc(-c3nc4c5c(nc(OC[C@@]67CCCN6[C@H](COc6ccnc(C(F)(F)F)n6)CC7)nc5c3F)N3C[C@H]5CC[C@H](N5)[C@H]3CC4)c12 [Example 148, 5-ethynyl-6-fluoro-4-((5aR,6S,9R)-1-fluoro-12-(((3S,7aS)-3-(((2-(trifluoromethyl)pyrimidin-4-yl)oxy)methyl)tetrahydro-1H-pyrrolizin-7a(5H)-yl)methoxy)-4,5,5a,6,7,8,9,1O-octahydro-3,10a,11,13,14-pentaaza-6,9-methanonaphtho[1,8-ab]heptalen-2-yl)naphthalen-2-ol] | 0.7 nM | 7.7 nM | 0.1 nM | – | – |
| C#Cc1c(F)ccc2cc(O)cc(-c3nc4c5c(nc(OC[C@@]67CCCN6[C@H](COC(C)(C(F)(F)F)C(F)(F)F)CC7)nc5c3F)N3C[C@H]5CC[C@H](N5)[C@H]3CC4)c12 [Example 109] | 1.2 nM | 0.8 nM | 0.1 nM | – | – |
| C#Cc1c(F)ccc2cccc(-c3nc4c5c(nc(OC[C@@]67CCCN6[C@H](COC(C)(C(F)(F)F)C(F)(F)F)CC7)nc5c3F)N3C[C@H]5CC[C@H](N5)[C@H]3CC4)c12 [Example 112, (5aR,6S,9R)-2-(8-ethynyl-7-fluoronaphthalen-1-yl)-1-fluoro-12-(((3S,7aS)-3-(((1,1,1,3,3,3-hexafluoro-2-methylpropan-2-yl)oxy)methyl)tetrahydro-1H-pyrrolizin-7a(5H)-yl)methoxy)-4,5,5a,6,7,8,9,10-octahydro-3,10a,11,13,14-pentaaza-6,9-methanonaphtho[1,8-ab]heptalene] | 41 nM | 270 nM | 0.3 nM | – | – |
| C#Cc1c(F)ccc2cc(O)cc(-c3nc4c5c(nc(OC[C@]67CCCN6C[C@@H](OC(F)(F)F)C7)nc5c3F)N3C[C@H]5CC[C@H](N5)[C@H]3CC4)c12 (stereo in doubt) [Example 141, 5-ethynyl-6-fluoro-4-((5aR,6S,9R)-1-fluoro-12-((trans-2-(trifluoromethoxy)tetrahydro-1H-pyrrolizin-7a(5H)-yl)methoxy)-4,5,5a,6,7,8,9,10-octahydro-3,10a,11,13,14-pentaaza-6,9-methanonaphtho[1,8-ab]heptalen-2-yl)naphthalen-2-ol] | 0.4 nM | 3.7 nM | 0.2 nM | – | – |
| C#Cc1c(F)ccc2cc(O)cc(-c3nc4c5c(nc(OC[C@@]67CCCN6C[C@H](F)C7)nc5c3F)N3C[C@H]5CC[C@H](N5)[C@@H]3[C@@H](C)[C@H]4C)c12 [Example 87, 5-ethynyl-6-fluoro-4-((4R,5S,5aS,6S,9R)-1-fluoro-12-(((2R,7aS)-2-fluorotetrahydro-1H-pyrrolizin-7a(5H)-yl)methoxy)-4,5-dimethyl-4,5,5a,6,7,8,9,10-octahydro-3,10a,11,13,14-pentaaza-6,9-methanonaphtho[1,8-ab]heptalen-2-yl)naphthalen-2-ol] | 0.2 nM | 0.3 nM | 0.4 nM | – | – |
